Measured values reported in patent EP0711545B1, “Aqueous mild surfactants containing preparations for cosmetic and cleaning use” (priority 1994, dated 1996).

Tested on: Rote Blutkörperchen
Test: Red blood cell test (RBC test): lysis of blood cells and denaturation of released haemoglobin
Format: cell-based
Text: Fettsäureamidopropylbetaine, abgeleitet von Fettsäuren unterschiedlicher Kettenlängen, werden mit Hilfe einer in-vitro-Methode, dem Rote-Blutkörperchen-Test (RBC), auf ihre physiologische Verträglichkeit untersucht.
Hierbei werden zur Charakterisierung der typischen irritativen Wechselbeziehung von Tensiden mit intakten Zellstrukturen die Zerstörung der Blutzellen durch Lyse und die Denaturierung des freigesetzten Hämoglobins gemessen. Das Ergebnis stellt der Quotient aus Lyse (L) und Denaturierung (D) L/D dar. Je kleiner der L/D-Wert ist, desto reizender ist die Substanz bzw. Formulierung einzustufen.

[1] = Table 1: single betaines, the smaller L/D, the more irritant
[2] = Table 1: single fatty acid amidopropyl betaines
[3] = Table 3: 10 % betaine + 5 % APG in water
[4] = Table 3: 10 % betaine + 5 % LSSDNa in water
[5] = Table 3: 10 % betaine + 5 % NaLSC in water

CCCCCCCC(=O)NCCC[N+](C)(C)CC(=O)[O-] [C8-Betain]
L/D [1]: >> 100
Denaturierung (D) [2]: keine Hämolyse
Lyse (L) [2]: keine Hämolyse

CCCCCCCCCC(=O)NCCC[N+](C)(C)CC(=O)[O-] [C10-Betain]
L/D [1]: >> 100
Denaturierung (D) [2]: keine Hämolyse
Lyse (L) [2]: keine Hämolyse

CCCCCCCCCCCC(=O)NCCC[N+](C)(C)CC(=O)[O-] [C12-Betain]
L/D [1]: 8,9
Denaturierung (D) [2]: 17
Lyse (L) [2]: 151
Denaturierung (D) [3]: <1
L/D [3]: >100
Lyse (L) [3]: 81
Denaturierung (D) [4]: 13
L/D [4]: 3,8
Lyse (L) [4]: 49
Denaturierung (D) [5]: 18
L/D [5]: 4,7
Lyse (L) [5]: 84

CCCCCCCCCCCCCC(=O)NCCC[N+](C)(C)CC(=O)[O-] [C14-Betain]
L/D [1]: 1,4
Denaturierung (D) [2]: 9,2
Lyse (L) [2]: 13

CCCCCCCCCCCCCCCC(=O)NCCC[N+](C)(C)CC(=O)[O-] [C16-Betain]
L/D [1]: 1,0
Denaturierung (D) [2]: 4,4
Lyse (L) [2]: 4,4
